Experimental data as given in patent US20230365546A1, “5-SUBSTITUTED INDOLE 3-AMIDE DERIVATIVES, PREPARATION METHOD AND USE THEREOF” (ORIGIANT PHARMACEUTICAL CO., LTD, priority 2020, published 2023).
pEC50: −log10 of the molar value. Like-named read-outs stand apart in the source and are kept apart here.

Legend:
TLK1(h) = TLK1(h) (Homo sapiens (Human), UniProt Q9UKI8); assay: Kinase Profiler 10 μM panel
Procedure: (§1) In vitro kinase assays were conducted using Kinase Profiler services provided by Eurofins. The experimental method was as follows: the small molecule compound to be tested (0.001-10 μM), the protein kinase to be tested were incubated with a buffer containing substrate, 10 mM magnesium acetate, and [γ-^33P-ATP], the reaction was started by adding Mg\TPmix, after incubation for a period of time at room temperature, a 3% phosphate solution was added to the buffer to stop the reaction. Subsequently, 10 μL of the reaction mixture was quantitatively pipetted onto P30 filter paper, which was washed three times with 75 mM phosphate solution and then once with methanol. The P30 filter paper was air-dried and scintillation fluid was added for scintillation counting.

PAK5(h) = PAK5(h) (Homo sapiens (Human), UniProt Q9P286); assay: Kinase Profiler 10 μM panel
Procedure: as §1

PTK5(h) = PTK5(h) (Homo sapiens (Human), UniProt P42685); assay: Kinase Profiler 10 μM panel
Procedure: as §1

LIMK2(h) = LIMK2(h) (Homo sapiens (Human), UniProt P53671); assay: Kinase Profiler 10 μM panel
Procedure: as §1

Yes(h) = Yes(h) (Homo sapiens (Human), UniProt P07947); assay: Kinase Profiler 10 μM panel
Procedure: as §1

[1] = target: PI3 Kinase (p110a(H1047R)/p85a)(m) (Mus musculus (Mouse), UniProt P42337, H1047R); assay: Kinase Profiler 10 μM panel
Procedure: as §1

PKCμ(h) = PKCμ(h) (Homo sapiens (Human), UniProt Q15139); assay: Kinase Profiler 10 μM panel
Procedure: as §1

TTBK1(h) = TTBK1(h) (Homo sapiens (Human), UniProt Q5TCY1); assay: Kinase Profiler 10 μM panel
Procedure: as §1

CLK4(h) = CLK4(h) (Homo sapiens (Human), UniProt Q9HAZ1); assay: Kinase Profiler 10 μM panel
Procedure: as §1

Abl(m) = Abl(m) (Mus musculus (Mouse), UniProt P00520); assay: Kinase Profiler 10 μM panel
Procedure: as §1

PhKγ1(h) = PhKγ1(h) (Homo sapiens (Human), UniProt Q16816); assay: Kinase Profiler 10 μM panel
Procedure: as §1

HT-29 cells = assay: Protection against programmed necrosis of HT-29 cells (TNF α/Smac mimetic/Z-VAD-FMK, CCK8); format: cell-based; settings: Homo sapiens
ULK1(h) = ULK1(h) (Homo sapiens (Human), UniProt O75385); assay: Kinase Profiler 10 μM panel
Procedure: as §1

PRK1(h) = PRK1(h) (Homo sapiens (Human), UniProt Q16512); assay: Kinase Profiler 10 μM panel
Procedure: as §1

PKCα(h) = PKCα(h) (Homo sapiens (Human), UniProt P17252); assay: Kinase Profiler 10 μM panel
Procedure: as §1

PDGFRα(h) = PDGFRα(h) (Homo sapiens (Human), UniProt P16234); assay: Kinase Profiler 10 μM panel
Procedure: as §1

TYK2(h) = TYK2(h) (Homo sapiens (Human), UniProt P29597); assay: Kinase Profiler 10 μM panel
Procedure: as §1

CSK(h) = CSK(h) (Homo sapiens (Human), UniProt P41240); assay: Kinase Profiler 10 μM panel
Procedure: as §1

MAP4K5(h) = MAP4K5(h) (Homo sapiens (Human), UniProt Q9Y4K4); assay: Kinase Profiler 10 μM panel
Procedure: as §1

MAP4K4(h) = MAP4K4(h) (Homo sapiens (Human), UniProt O95819); assay: Kinase Profiler 10 μM panel
Procedure: as §1

LKB1(h) = LKB1(h) (Homo sapiens (Human), UniProt Q15831); assay: Kinase Profiler 10 μM panel
Procedure: as §1

Bmx(h) = Bmx(h) (Homo sapiens (Human), UniProt P51813); assay: Kinase Profiler 10 μM panel
Procedure: as §1

PDGFRα(V561D)(h) = PDGFRα(V561D)(h) (Homo sapiens (Human), UniProt P16234, V561D); assay: Kinase Profiler 10 μM panel
Procedure: as §1

CHK1(h) = CHK1(h) (Homo sapiens (Human), UniProt O14757); assay: Kinase Profiler 10 μM panel
Procedure: as §1

TBK1(h) = TBK1(h) (Homo sapiens (Human), UniProt Q9UHD2); assay: Kinase Profiler 10 μM panel
EphA1(h) = EphA1(h) (Homo sapiens (Human), UniProt P21709); assay: Kinase Profiler 10 μM panel
Procedure: as §1

NEK11(h) = NEK11(h) (Homo sapiens (Human), UniProt Q8NG66); assay: Kinase Profiler 10 μM panel
Procedure: as §1

[2] = TNF α/Smac mimetic/Z-VAD-FMK induced 24 h, CCK8, read-out: HT-29 (EC50)
[3] = TSZ-induced, FIG. 3, read-out: EC50 value, programmed necrosis model of HT-29

Sequence of PDGFRα(h) (P16234 24-1089): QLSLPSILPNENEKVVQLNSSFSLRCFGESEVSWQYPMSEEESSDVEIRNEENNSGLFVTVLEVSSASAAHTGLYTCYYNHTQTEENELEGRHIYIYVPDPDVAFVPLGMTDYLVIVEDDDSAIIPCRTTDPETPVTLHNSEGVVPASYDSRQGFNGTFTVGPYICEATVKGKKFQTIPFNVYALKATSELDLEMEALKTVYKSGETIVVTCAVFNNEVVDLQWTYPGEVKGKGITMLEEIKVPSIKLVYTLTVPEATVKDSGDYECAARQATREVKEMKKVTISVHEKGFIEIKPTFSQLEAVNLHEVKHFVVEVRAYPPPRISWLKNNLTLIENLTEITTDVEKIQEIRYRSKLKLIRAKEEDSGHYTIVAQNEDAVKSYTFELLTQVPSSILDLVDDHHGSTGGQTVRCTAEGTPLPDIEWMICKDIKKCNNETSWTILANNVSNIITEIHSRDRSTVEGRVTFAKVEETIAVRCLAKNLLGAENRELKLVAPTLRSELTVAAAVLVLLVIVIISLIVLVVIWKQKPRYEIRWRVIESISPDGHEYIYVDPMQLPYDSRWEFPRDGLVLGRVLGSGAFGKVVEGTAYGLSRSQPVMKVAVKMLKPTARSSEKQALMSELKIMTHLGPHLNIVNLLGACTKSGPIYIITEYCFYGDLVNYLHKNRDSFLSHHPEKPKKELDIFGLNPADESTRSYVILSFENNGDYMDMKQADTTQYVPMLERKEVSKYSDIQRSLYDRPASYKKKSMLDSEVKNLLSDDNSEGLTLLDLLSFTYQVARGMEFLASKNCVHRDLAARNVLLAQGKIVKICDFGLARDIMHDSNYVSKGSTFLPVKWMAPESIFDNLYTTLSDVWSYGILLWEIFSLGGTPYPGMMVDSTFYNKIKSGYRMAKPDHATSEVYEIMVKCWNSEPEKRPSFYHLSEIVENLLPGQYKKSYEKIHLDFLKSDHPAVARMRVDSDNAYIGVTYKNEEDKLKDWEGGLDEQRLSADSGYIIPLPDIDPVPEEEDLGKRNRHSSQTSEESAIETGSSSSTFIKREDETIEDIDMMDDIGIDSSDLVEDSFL
Sequence of TTBK1(h) (Q5TCY1 whole entry): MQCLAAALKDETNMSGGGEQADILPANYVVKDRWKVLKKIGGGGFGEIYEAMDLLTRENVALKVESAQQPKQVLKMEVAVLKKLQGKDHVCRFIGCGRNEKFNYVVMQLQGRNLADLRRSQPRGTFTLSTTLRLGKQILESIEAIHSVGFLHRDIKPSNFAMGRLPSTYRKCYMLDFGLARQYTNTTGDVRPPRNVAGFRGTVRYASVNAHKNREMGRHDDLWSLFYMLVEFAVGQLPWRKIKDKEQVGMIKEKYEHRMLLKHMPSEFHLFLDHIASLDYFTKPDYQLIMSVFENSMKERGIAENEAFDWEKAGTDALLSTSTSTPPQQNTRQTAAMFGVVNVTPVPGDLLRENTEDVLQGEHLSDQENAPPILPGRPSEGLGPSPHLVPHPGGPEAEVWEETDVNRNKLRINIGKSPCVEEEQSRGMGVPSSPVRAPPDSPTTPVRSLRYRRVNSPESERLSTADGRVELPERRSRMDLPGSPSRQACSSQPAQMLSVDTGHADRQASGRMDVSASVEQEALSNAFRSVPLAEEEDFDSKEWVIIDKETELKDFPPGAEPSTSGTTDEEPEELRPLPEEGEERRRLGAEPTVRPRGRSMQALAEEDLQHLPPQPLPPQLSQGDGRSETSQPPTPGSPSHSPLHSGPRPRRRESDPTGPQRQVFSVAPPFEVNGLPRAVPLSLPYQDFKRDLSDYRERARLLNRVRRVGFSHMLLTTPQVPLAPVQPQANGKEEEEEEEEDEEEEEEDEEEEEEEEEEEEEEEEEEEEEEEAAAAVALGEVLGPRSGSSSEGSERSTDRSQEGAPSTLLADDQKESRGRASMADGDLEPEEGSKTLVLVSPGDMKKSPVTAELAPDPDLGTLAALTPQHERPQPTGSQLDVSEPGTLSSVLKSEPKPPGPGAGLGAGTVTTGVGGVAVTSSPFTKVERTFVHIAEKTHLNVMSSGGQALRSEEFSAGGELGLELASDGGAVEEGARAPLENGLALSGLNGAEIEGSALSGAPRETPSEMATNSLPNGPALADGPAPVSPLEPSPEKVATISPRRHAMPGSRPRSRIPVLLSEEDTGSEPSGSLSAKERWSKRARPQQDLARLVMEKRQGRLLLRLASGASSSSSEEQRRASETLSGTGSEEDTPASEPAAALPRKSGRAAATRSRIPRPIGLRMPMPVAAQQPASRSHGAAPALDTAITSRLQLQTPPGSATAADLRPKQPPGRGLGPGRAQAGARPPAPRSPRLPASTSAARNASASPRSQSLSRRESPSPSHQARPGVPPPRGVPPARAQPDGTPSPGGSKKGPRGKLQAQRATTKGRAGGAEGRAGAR
Sequence of PI3 Kinase (p110a(H1047R)/p85a)(m) (P42337 whole entry H1047R): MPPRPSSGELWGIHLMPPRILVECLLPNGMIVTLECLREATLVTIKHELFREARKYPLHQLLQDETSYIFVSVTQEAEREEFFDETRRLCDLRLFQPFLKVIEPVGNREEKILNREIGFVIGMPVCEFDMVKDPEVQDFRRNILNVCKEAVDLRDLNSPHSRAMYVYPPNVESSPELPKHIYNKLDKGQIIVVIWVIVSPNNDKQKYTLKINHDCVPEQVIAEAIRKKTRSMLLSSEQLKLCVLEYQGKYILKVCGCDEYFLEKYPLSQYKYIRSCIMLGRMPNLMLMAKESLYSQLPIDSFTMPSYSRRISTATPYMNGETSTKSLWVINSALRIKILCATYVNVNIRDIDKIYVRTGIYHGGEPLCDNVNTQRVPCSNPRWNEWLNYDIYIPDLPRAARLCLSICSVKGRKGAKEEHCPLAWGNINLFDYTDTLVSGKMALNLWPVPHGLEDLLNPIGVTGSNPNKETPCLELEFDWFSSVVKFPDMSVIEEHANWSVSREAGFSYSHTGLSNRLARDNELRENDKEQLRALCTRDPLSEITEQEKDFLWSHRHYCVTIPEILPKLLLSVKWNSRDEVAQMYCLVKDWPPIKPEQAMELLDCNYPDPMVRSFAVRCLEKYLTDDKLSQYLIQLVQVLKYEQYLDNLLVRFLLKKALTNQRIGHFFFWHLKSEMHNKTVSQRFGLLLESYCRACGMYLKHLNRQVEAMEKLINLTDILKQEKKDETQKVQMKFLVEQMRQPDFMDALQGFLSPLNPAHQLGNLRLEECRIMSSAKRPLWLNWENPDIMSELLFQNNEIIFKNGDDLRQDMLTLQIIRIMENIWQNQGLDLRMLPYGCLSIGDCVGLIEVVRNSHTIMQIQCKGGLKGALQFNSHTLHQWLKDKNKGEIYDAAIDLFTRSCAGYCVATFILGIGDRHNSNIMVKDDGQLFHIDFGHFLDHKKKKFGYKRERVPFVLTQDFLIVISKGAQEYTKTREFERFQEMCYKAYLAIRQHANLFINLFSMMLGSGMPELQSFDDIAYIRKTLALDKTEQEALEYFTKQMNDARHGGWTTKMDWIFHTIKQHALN
Sequence of PI3 Kinase (p110a(H1047R)/p85a)(m) (P26450 whole entry partner): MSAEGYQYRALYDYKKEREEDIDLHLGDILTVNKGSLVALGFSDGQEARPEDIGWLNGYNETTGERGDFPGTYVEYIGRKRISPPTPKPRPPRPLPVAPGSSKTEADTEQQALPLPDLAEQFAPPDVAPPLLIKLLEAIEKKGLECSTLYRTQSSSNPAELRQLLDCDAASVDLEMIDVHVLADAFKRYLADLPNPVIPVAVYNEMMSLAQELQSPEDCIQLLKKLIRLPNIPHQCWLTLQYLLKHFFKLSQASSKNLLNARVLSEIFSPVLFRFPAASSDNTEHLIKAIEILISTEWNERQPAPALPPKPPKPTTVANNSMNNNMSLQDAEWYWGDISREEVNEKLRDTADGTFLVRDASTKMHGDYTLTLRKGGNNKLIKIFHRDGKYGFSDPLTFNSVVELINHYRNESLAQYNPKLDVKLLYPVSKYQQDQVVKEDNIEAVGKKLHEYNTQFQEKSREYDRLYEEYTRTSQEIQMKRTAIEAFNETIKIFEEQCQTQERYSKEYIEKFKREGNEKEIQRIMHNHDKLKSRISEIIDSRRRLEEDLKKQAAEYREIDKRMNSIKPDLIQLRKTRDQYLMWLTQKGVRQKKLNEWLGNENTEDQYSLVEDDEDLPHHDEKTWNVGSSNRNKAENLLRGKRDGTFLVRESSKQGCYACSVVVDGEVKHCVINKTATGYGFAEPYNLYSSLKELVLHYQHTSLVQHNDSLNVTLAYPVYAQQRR
Sequence of CHK1(h) (O14757 whole entry): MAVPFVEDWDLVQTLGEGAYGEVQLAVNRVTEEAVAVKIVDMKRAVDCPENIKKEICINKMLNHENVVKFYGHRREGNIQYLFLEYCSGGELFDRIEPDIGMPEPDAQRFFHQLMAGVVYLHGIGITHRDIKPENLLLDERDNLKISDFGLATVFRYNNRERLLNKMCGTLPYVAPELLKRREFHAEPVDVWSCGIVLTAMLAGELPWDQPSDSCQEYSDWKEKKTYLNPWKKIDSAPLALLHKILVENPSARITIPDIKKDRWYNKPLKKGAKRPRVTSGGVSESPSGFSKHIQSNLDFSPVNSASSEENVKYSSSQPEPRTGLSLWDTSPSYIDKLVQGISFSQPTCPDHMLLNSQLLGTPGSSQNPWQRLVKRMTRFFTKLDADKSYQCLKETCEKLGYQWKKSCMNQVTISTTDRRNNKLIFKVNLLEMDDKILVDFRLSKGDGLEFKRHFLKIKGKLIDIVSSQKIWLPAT
Sequence of PDGFRα(V561D)(h) (P16234 24-1089 V561D): as the sequence (P16234 24-1089) above, with V538D counted along it
Sequence of PhKγ1(h) (Q16816 whole entry): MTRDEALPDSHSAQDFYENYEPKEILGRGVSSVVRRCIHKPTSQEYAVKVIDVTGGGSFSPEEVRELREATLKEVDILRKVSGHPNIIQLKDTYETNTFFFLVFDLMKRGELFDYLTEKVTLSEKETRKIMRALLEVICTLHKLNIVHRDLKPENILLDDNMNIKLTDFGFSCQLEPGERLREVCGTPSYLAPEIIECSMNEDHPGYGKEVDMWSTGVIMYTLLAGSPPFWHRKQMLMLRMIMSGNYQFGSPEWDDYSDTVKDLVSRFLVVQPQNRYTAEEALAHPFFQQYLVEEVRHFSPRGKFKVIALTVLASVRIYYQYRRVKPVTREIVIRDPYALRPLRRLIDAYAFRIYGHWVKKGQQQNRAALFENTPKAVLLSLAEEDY

## C[C@H](NC(=O)c1c[nH]c2ccc(-c3ccc4nc(NC(=O)C5CC5)sc4c3)cc12)c1cccc(F)c1 [Compound 34, (S)-5-(2-(cyclopropanecarboxamido)benzo[d]thiazol-6-yl)-N-(1-(3-fluorophenyl)ethyl)-1H-indole-3-carboxamide]
TLK1(h)
  Inhibition ratio: 19%
PAK5(h)
  Inhibition ratio: −2%
PTK5(h)
  Inhibition ratio: 51%
LIMK2(h)
  Inhibition ratio: 44%
Yes(h)
  Inhibition ratio: 85%
[1]
  Inhibition ratio: 17%
PKCμ(h)
  Inhibition ratio: 6%
TTBK1(h)
  Inhibition ratio: 4%
CLK4(h)
  Inhibition ratio: 79%
Abl(m)
  Inhibition ratio: 99%
PhKγ1(h)
  Inhibition ratio: 16%
HT-29 cells; [2]
  pEC50: > 9.00
HT-29 cells; [3]
  pEC50: 9.93
ULK1(h)
  Inhibition ratio: 11%
PRK1(h)
  Inhibition ratio: 26%
PKCα(h)
  Inhibition ratio: 6%
PDGFRα(h)
  Inhibition ratio: 32%
TYK2(h)
  Inhibition ratio: 12%
CSK(h)
  Inhibition ratio: 13%
MAP4K5(h)
  Inhibition ratio: 64%
MAP4K4(h)
  Inhibition ratio: 98%
LKB1(h)
  Inhibition ratio: 6%
Bmx(h)
  Inhibition ratio: 54%
PDGFRα(V561D)(h); PDGFRα(V561D)(h)
  Inhibition ratio: 99%
CHK1(h)
  Inhibition ratio: 2%
TBK1(h)
  Inhibition ratio: 53%
EphA1(h)
  Inhibition ratio: 3%
NEK11(h)
  Inhibition ratio: 35%

## C[C@H](NC(=O)c1cn(C)c2ccc(-c3ccn4nc(NC(=O)C5CC5)nc4c3)cc12)c1cccc(F)c1 [Compound 94, (S)-5-(2-(cyclopropanecarboxamido)-[1,2,4]triazolo[1,5-a]pyridin-7-yl)-N-(1-(3-fluorophenyl)ethyl)-1-methyl-1H-indole-3-carboxamide]
TLK1(h)
  Inhibition ratio/%: 11%
PAK5(h)
  Inhibition ratio/%: 47%
PTK5(h)
  Inhibition ratio/%: 48%
LIMK2(h)
  Inhibition ratio/%: 19%
Yes(h)
  Inhibition ratio/%: 29%
[1]
  Inhibition ratio/%: 47%
PKCμ(h)
  Inhibition ratio/%: 50%
TTBK1(h)
  Inhibition ratio/%: 13%
CLK4(h)
  Inhibition ratio/%: 79%
Abl(m)
  Inhibition ratio/%: 61%
PhKγ1(h)
  Inhibition ratio/%: −12%
HT-29 cells; [2]
  pEC50: > 9.00
HT-29 cells; [3]
  pEC50: 10.92
ULK1(h)
  Inhibition ratio/%: 45%
PRK1(h)
  Inhibition ratio/%: −12%
PKCα(h)
  Inhibition ratio/%: 16%
PDGFRα(h)
  Inhibition ratio/%: 51%
TYK2(h)
  Inhibition ratio/%: 50%
CSK(h)
  Inhibition ratio/%: 60%
MAP4K5(h)
  Inhibition ratio/%: 6%
MAP4K4(h)
  Inhibition ratio/%: −3%
LKB1(h)
  Inhibition ratio/%: 55%
Bmx(h)
  Inhibition ratio/%: 34%
PDGFRα(V561D)(h); printed in Table 4 as PDGFRβ (V561D)(h)
  Inhibition ratio/%: 38%
CHK1(h)
  Inhibition ratio/%: −2%
TBK1(h)
  Inhibition ratio/%: 13%
EphA1(h)
  Inhibition ratio/%: −12%
NEK11(h)
  Inhibition ratio/%: 44%
